Earlier results as cited in US20250387420A1, “Prevention of Nausea and Vomiting from Antibody-Drug Conjugates and other Long-Acting Emetogenics” (Helsinn Healthcare SA, priority 2024, published 2025).

How the values were obtained:
NK1 receptor = NK1 receptor (Homo sapiens, UniProt P25103)
[1] = 48 hours after a single 300 mg oral netupitant dose; Gilmore and Bernareggi 2019
[2] = tested on: patients receiving cisplatin-based chemotherapy; conditions: 168 hours following highly emetogenic cisplatin-based therapy

NK1 receptor, sequence (P25103 whole entry): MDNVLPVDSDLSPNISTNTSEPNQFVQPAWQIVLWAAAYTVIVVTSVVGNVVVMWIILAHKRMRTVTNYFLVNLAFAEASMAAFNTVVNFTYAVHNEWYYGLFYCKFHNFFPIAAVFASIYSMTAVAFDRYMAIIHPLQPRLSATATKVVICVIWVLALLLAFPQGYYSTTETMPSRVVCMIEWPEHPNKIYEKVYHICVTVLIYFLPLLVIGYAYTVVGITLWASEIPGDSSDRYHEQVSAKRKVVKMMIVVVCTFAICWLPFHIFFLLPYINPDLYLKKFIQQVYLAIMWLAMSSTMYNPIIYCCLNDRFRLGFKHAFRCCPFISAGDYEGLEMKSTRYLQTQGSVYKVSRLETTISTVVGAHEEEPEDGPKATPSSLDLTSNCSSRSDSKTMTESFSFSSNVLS

NK1 receptor occupancy rates necessary for efficacy (NK1 receptor; Bergstrom et al. 2004) [%] | plasma concentration [1] | plasma concentration at which 90% receptor occupancy is achieved (NK1 receptor; Spinelli et al. 2013) [ng/mL] | Structure (SMILES) | comparative efficacy versus aprepitant [2]
> 90 |  |  | C[C@@H](O[C@H]1OCCN(Cc2n[nH]c(=O)[nH]2)[C@H]1c1ccc(F)cc1)c1cc(C(F)(F)F)cc(C(F)(F)F)c1 [aprepitant] | 
 | below 100 ng/mL | 225 | Cc1ccccc1-c1cc(N2CCN(C)CC2)ncc1N(C)C(=O)C(C)(C)c1cc(C(F)(F)F)cc(C(F)(F)F)c1 [netupitant] | favorable comparative efficacy to aprepitant
